# ChEMBL document CHEMBL6182840, “A review of click chemistry in the synthesis of organophosphorus triazoles and their biological activities” (Eur J Med Chem, 2025)
# Tests used:
# [1] = tested on: Hepatitis B virus; assay: Antiviral activity against HBV infected in human Huh-7 cells assessed as inhibition of HBV DNA production at 10 uM relative to control; format: functional
# [2] = Cytotoxicity against human PBMC cells assessed as reduction in cell viability by MTS assay; format: functional, cell-based
# [3] = tested on: HepG2; assay: Cytotoxicity against human HepG2 cells assessed as reduction in cell viability by MTS assay; format: functional, cell-based
# [4] = tested on: MCF7; assay: Cytotoxicity against human MCF7 cells assessed as reduction in cell growth by MTT assay; format: functional, cell-based
# [5] = Cytotoxicity against human HEF cells assessed as reduction in cell growth by MTT assay; format: functional, cell-based
# [6] = tested on: HCT-116; assay: Cytotoxicity against human HCT-116 cells assessed as reduction in cell growth by MTT assay; format: functional, cell-based
# [7] = tested on: MCF7; assay: Cytotoxicity against human MCF7 cells assessed as reduction in cell viability incubated for 72 hrs by MTT assay; format: functional, cell-based; settings: MCF7, 72 h
# [8] = tested on: Caov-3 cell line; assay: Cytotoxicity against human Caov-3 cell line assessed as reduction in cell viability incubated for 72 hrs by MTT assay; format: functional, cell-based; settings: Caov-3, 72 h
# [9] = tested on: A549; assay: Cytotoxicity against human A549 cells assessed as reduction in cell viability incubated for 72 hrs by MTT assay; format: functional, cell-based; settings: A549, 72 h
# [10] = tested on: PC-3; assay: Cytotoxicity against human PC-3 cells assessed as reduction in cell viability incubated for 72 hrs by MTT assay; format: functional, cell-based; settings: PC-3, 72 h
# [11] = tested on: HCT-116; assay: Cytotoxicity against human HCT-116 cells assessed as reduction in cell viability incubated for 72 hrs by MTT assay; format: functional, cell-based; settings: HCT-116, 72 h
# [12] = target: T1, 4-galactosyl-N-acetylglucosaminide 3-alpha-L-fucosyltransferase FUT6 (Homo sapiens, UniProt P51993); assay: Inhibition of human FUT6
# T1 sequence (P51993 whole entry): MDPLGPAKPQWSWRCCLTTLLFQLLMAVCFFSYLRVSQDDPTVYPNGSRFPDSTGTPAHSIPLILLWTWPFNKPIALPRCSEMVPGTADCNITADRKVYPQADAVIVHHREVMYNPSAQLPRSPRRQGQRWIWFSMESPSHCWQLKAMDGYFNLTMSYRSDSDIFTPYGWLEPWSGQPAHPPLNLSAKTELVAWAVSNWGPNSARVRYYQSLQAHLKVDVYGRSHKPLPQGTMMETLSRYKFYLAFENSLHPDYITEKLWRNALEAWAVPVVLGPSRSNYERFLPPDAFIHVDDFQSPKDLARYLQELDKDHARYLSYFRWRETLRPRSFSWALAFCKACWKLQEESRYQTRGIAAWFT
Structure (SMILES),IC50 [7] [nM],IC50 [8] [nM],IC50 [9] [nM],IC50 [10] [nM],IC50 [11] [nM],other results
CCCCCCCCCCCCCCCCOCCCOP(=O)(C/C=C(\C)Cn1cc(C(N)=O)nn1)OCOC(=O)OC(C)C (stereo not given),,,,,,inhibition at 10 µM [1]: 62%; IC50 [2]: 43100 nM; IC50 [3]: 66400 nM
CCOP(=O)(OCC)C(Cc1cn(CCN2C/C(=C\c3ccc([N+](=O)[O-])cc3)C(=O)/C(=C/c3ccc([N+](=O)[O-])cc3)C2)nn1)P(=O)(OCC)OCC,,,,,,IC50 [4]: 5000 nM; IC50 [5]: 5000 nM; IC50 [6]: 5000 nM
CCOP(=O)(CCCn1cc(CN2C/C(=C\c3ccc(C#N)cc3)C(=O)/C(=C/c3ccc(C#N)cc3)C2)nn1)OCC,1500,1500,1500,1500,1500,
CCOP(=O)(CCCCn1cc(CN2C/C(=C\c3ccc([N+](=O)[O-])cc3)C(=O)/C(=C/c3ccc([N+](=O)[O-])cc3)C2)nn1)OCC,1500,1500,1500,1500,1500,
CCOP(=O)(CCCn1cc(CN2C/C(=C\c3ccc([N+](=O)[O-])cc3)C(=O)/C(=C/c3ccc([N+](=O)[O-])cc3)C2)nn1)OCC,1500,1500,1500,1500,1500,
Nc1nc2c(ncn2[C@@H]2O[C@H](COP(=O)(O)OP(=O)(O)OCc3cn(CCCCC(=O)NCc4ccc(-c5ccccc5)cc4)nn3)[C@@H](O)[C@H]2O)c(=O)[nH]1,,,,,,IC50 [12]: 610 nM
CCOP(=O)(CCCCn1cc(CN2C/C(=C\c3ccc(C#N)cc3)C(=O)/C(=C/c3ccc(C#N)cc3)C2)nn1)OCC,1500,1500,1500,1500,1500,
CCOP(=O)(OCC)C(Cc1cn(CCN2C/C(=C\c3ccc(C#N)cc3)C(=O)/C(=C/c3ccc(C#N)cc3)C2)nn1)P(=O)(OCC)OCC,,,,,,IC50 [4]: 5000 nM; IC50 [5]: 5000 nM; IC50 [6]: 5000 nM
CCOP(=O)(CCCn1cc(CN2C/C(=C\c3ccc(F)cc3)C(=O)/C(=C/c3ccc(F)cc3)C2)nn1)OCC,1500,1500,1500,1500,1500,
